# Measurements from patent publication US20090062255A1, “TUMOR-TARGETING EVALUATION METHODOLOGY AND COMPOUNDS RELATED THERETO” (THALLION PHARMACEUTICALS INC., priority 2007, published 2009).
# Tests used:
# human MAPK2 (ERK2) = target: T1, human MAPK2 (ERK2) (Homo sapiens, UniProt P28482); test: Upstate Kinase Profiler, MAPK2 (ERK2); assay type: biochemical
# T1 construct: purchased Upstate (Kinase Profiler Service; Dundee, UK)
# Protocol: (§1) Unlike current Ras signalling pathway inhibitors, ECO-4601 is not a direct kinase inhibitor. This was documented by evaluating the effect of ECO-4601 on human EGFR, c-RAF, MEK1, MAPK1 (ERK1) and MAPK2 (ERK2) kinase-activity (Upstate Kinase Profiler™ Service; Dundee, UK). ECO-4601 was tested at 0.5 μM and 5 μM in a final volume of 25 μL according to standard protocols developed by Upstate Ltd. Briefly, purified recombinant human enzymes were incubated with 25 mM Tris pH 7.5 containing EGTA, a specific substrate and γ-^32P-ATP. The reaction was initiated with MgATP mix and incubated for 40 minutes at RT. The reaction was stopped by the addition of 5 μL of a 3% phosphoric acid solution; aliquots were spotted on filters and counted. Detailed procedures are available on the Millipore Upstate website.
# GTP-bound Ras = test: Ras activation pull-down assay (GST-Raf-RBD) in MCF-7 cells; assay type: cell-based, human; settings: 6 h treatment, EGF 5 min
# Protocol: Following EGF induction, Ras is activated by a nucleotide exchange reaction that removes GDP and replaces it with GTP. Physiological levels of total cellular GTP-bound Ras can be detected with pull-down assays. MCF-7 cells were treated with increasing concentrations of ECO-4601 for 6 h and the Ras-MAPK signalling pathway was then induced with EGF. After a 5 min induction period, cells were lysed and incubated with a recombinant fusion protein that contains the isolated Ras Binding Domain of c-Raf-1 fused the gluthathione-S-transferese (GST; designated GST-Raf-RBD). The presence of Ras in the GST-Raf-RBD protein complex is resolved by western blotting. As expected, after EGF induction, an increase of Ras-GTP was observed.
# [1] = test system: GHD astrocytoma cell line; test: MTT cytotoxicity, GHD cell line; assay type: cell-based; settings: 96 h, Human
# Protocol: (§2) The cytotoxic activity of Compound 1 was further evaluated using a panel of brain tumor cell lines. This study was performed in collaboration with INSERM (Grenoble, France). Tumor cells (5,000 to 10,000 cells per well depending on their doubling time) were plated in 96-well flat-bottom plates and incubated for 24 hours before treatment. Tumor cells were then incubated for 96 hours with seven different concentrations of Compound 1: […], 0.01, and 0.001 μM. The in vitro cytotoxic activity was determined by a standard MTT assay.
# [2] = test system: GHA oligodendroglioma cell line; test: MTT cytotoxicity, GHA cell line; assay type: cell-based; settings: 96 h, Human
# Protocol: as §2
# human c-RAF = target: T2, human c-RAF (Homo sapiens, UniProt P04049); test: Upstate Kinase Profiler, c-RAF; assay type: biochemical
# T2 construct: purchased Upstate (Kinase Profiler Service; Dundee, UK)
# Protocol: as §1
# 9L gliosarcoma cell line = test: MTT cytotoxicity, 9L cell line; assay type: cell-based; settings: 96 h, Rat
# Protocol: as §2
# [3] = test system: human uterine sarcoma MES-SA; test: Growth inhibitory MTT assay, MES-SA; assay type: cell-based; settings: 72 hours, treated over control
# Protocol: (§3) Growth inhibitory activity of ECO-4601 (Compound 1) and other dibenzodiazepinone analogs was evaluated on a panel of 4 human tumor cell lines: the human uterine sarcoma MES-SA and its doxorubicin-resistant P-glycoprotein over-expressing variant, MES-SA/DX5 as well as non-aggressive and highly aggressive human breast cell lines, MCF-7 and MDA-MB-231, respectively. These four cell lines were obtained from the American Type Culture Collection (Manassas, Va.) and cultured in RPMI plus 10% fetal bovine serum (FBS) and maintained at 37° C. with 5% CO2.
# (§4) Exponentially growing cells (5,000 cells per well time; cell number determined with a hemocytometer) were seeded in 96-well flat-bottom plates and allowed to grow overnight. Cells were then incubated for 72 hours with three different concentrations of ECO-4601 or analogs: 30,10, and 3 μM. The in vitro growth inhibitory activity was determined by a commercial MTT assay. All measurements were done in quadruplicate and each experiment was performed 2-3 times. The lower the value, the more cytotoxic is the compound.
# [4] = test system: DN oligodendroglioma cell line; test: MTT cytotoxicity, DN cell line; assay type: cell-based; settings: 96 h, Human
# Protocol: as §2
# human EGFR = target: T3, human EGFR (Homo sapiens, UniProt P00533); test: Upstate Kinase Profiler, EGFR; assay type: biochemical
# T3 construct: purchased Upstate (Kinase Profiler Service; Dundee, UK)
# Protocol: as §1
# [5] = target: T4, peripheral benzodiazepine receptor (PBR) (Rattus norvegicus, UniProt P16257); test: In-house PBR binding assay ([3H]PK11195, rat heart mitochondrial membranes)
# T4 construct: CBR and PBR were obtained from rat brain and heart membrane-fractions, respectively; from tissue; host or cells: Wistar rat heart membranes
# Raf-1 = Raf-1 protein levels in MiaPaCa-2 tumors (Western blot); assay type: in vivo, mice; settings: 20 mg/kg SC daily for 5 days
# Protocol: In this model, it was verified if there was an association between antitumor activity and inhibition of the Ras-MAPK pathway. In parallel to the antitumor study described above, two additional groups of 5 mice were treated SC with vehicle or 20 mg/kg ECO-4601, administered daily for 5 days. Animals from these two groups were sacrificed two hours on day 5 of treatment. As shown by quantification of Western blot analysis (FIG. 13), Raf-1 levels were reduced in MiaPaCa-2 tumors obtained from animals treated with ECO-4601 compared with the vehicle-treated animals.
# [6] = test system: MES-SA/DX5 (doxorubicin-resistant P-glycoprotein over-expressing variant); test: Growth inhibitory MTT assay, MES-SA/DX5; assay type: cell-based, human; settings: 72 hours, treated over control
# Protocol: as §3, §4
# T2 sequence (P04049 whole entry): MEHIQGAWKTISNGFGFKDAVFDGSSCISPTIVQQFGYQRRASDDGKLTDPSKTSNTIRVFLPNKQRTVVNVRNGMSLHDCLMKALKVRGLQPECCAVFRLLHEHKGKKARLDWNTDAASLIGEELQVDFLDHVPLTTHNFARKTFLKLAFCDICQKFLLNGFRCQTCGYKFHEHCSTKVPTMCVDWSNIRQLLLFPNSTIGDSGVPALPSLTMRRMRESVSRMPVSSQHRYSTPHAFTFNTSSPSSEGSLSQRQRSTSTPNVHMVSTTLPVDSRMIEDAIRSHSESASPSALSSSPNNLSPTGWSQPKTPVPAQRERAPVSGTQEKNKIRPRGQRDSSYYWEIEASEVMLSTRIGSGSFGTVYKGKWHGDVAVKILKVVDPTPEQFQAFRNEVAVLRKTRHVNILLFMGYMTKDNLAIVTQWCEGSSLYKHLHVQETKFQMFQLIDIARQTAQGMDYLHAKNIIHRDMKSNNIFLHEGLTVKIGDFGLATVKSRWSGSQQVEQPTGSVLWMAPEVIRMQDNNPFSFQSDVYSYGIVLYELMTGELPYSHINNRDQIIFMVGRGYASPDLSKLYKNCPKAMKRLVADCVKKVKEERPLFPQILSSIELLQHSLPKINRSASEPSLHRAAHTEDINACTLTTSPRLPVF
# T3 sequence (P00533 25-1210): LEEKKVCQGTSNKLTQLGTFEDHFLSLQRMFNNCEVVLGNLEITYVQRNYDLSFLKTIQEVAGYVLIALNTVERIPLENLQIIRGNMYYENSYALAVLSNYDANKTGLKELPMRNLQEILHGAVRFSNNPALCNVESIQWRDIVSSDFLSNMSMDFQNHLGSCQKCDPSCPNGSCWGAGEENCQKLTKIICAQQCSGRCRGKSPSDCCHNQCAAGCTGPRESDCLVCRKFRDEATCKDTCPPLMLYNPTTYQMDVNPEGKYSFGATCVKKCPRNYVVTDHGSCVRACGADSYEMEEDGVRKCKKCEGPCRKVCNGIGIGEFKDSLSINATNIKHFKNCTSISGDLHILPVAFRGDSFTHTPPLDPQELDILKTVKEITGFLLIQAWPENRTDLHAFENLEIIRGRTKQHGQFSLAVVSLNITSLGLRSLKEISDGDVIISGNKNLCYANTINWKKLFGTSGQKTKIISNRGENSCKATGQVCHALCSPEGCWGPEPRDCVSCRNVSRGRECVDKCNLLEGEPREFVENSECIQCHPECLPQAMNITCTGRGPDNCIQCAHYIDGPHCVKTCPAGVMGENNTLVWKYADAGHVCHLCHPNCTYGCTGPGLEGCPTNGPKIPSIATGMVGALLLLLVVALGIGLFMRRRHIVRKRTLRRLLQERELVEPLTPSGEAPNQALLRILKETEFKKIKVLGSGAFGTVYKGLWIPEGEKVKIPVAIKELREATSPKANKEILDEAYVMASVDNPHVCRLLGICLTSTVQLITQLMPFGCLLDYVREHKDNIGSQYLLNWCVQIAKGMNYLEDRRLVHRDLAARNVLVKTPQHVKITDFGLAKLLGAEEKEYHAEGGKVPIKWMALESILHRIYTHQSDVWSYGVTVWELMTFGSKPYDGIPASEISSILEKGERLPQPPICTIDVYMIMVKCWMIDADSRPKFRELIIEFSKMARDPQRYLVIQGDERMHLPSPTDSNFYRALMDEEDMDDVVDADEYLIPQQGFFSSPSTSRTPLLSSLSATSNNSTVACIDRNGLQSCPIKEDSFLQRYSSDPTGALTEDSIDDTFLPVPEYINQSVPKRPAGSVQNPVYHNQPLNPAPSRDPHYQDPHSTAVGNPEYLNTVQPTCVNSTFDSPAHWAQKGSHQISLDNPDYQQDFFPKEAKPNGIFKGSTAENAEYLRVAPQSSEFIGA
# T1 sequence (P28482 whole entry): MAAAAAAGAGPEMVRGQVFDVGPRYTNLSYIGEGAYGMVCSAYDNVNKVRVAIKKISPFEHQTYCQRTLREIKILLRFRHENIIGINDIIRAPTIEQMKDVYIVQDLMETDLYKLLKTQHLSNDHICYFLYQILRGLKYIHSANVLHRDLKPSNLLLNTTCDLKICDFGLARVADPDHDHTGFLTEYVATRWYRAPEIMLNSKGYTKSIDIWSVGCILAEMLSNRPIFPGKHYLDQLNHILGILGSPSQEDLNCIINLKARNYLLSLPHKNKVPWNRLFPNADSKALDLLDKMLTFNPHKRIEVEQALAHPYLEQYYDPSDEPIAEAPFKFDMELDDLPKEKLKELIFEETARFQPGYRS
smiles,measurement,setting,value
"CC(C)=CCC/C(C)=C/CC/C(C)=C/CN1C(=O)c2cccc(O)c2Nc2c(O)cc(O)cc21 [Compound 1, 10-farnesyl-4,6,8-trihydroxy-5,10-dihydrodibenzo[b,e][1,4]diazepin-11-one]",direct inhibition of ERK2 kinase activity (in words),human MAPK2 (ERK2); 0.5 μM and 5 μM,does not directly inhibit
same,activity at 0.5 µM,"human MAPK2 (ERK2); MAPK2 (ERK2), 0.5 μM, % of enzyme activity over positive control, read-out: Kinase Activity (%) ± SD",116 ± 1%
same,activity at 5 µM,"human MAPK2 (ERK2); MAPK2 (ERK2), 5 μM, % of enzyme activity over positive control, read-out: Kinase Activity (%) ± SD",110 ± 1%
same,effect on EGF-induced Ras activation (Ras-GTP),GTP-bound Ras,prevented EGF from activating Ras
same,IC50,[1],6500 ± 2900 nM
same,IC50,[2],1600 ± 700 nM
same,direct inhibition of c-Raf kinase activity (in words),human c-RAF; 0.5 μM and 5 μM,does not directly inhibit
same,activity at 0.5 µM,"human c-RAF; c-Raf, 0.5 μM, % of enzyme activity over positive control, read-out: Kinase Activity (%) ± SD",114 ± 12%
same,activity at 5 µM,"human c-RAF; c-Raf, 5 μM, % of enzyme activity over positive control, read-out: Kinase Activity (%) ± SD",94 ± 2%
same,IC50,9L gliosarcoma cell line,8300 ± 3800 nM
same,% T/C at 10 μM,[3],78%
same,IC50,[4],3000 ± 700 nM
same,direct inhibition of EGFR kinase activity (in words),human EGFR; 0.5 μM and 5 μM,does not directly inhibit
same,activity at 0.5 µM,"human EGFR; EGFR, 0.5 μM, % of enzyme activity over positive control, read-out: Kinase Activity (%) ± SD",128 ± 6%
same,activity at 5 µM,"human EGFR; EGFR, 5 μM, % of enzyme activity over positive control, read-out: Kinase Activity (%) ± SD",127 ± 9%
same,EC50,[5],2800 nM
same,PBR binding (in words),[5],bind the PBR
same,Ki,"[5]; Ki=EC50/(1+[ligand]/Kd), [ligand]=1.6 nM, read-out: calculated Ki",~1400 nM
same,IC50,[5]; in-house radioligand-binding assay,2700 nM
same,Raf-1 levels in MiaPaCa-2 tumors versus vehicle-treated animals,Raf-1,reduced
same,% T/C at 10 μM,[6],100%
